Results as given in US20250051332A1 (priority 2022, published 2025).

What was measured:
Alpha2A = target: T1, Alpha2A (Homo sapiens, UniProt P08913); assay: PDSP radioligand displacement binding; conditions: average of three independent trials
T1 sequence (P08913 1-465): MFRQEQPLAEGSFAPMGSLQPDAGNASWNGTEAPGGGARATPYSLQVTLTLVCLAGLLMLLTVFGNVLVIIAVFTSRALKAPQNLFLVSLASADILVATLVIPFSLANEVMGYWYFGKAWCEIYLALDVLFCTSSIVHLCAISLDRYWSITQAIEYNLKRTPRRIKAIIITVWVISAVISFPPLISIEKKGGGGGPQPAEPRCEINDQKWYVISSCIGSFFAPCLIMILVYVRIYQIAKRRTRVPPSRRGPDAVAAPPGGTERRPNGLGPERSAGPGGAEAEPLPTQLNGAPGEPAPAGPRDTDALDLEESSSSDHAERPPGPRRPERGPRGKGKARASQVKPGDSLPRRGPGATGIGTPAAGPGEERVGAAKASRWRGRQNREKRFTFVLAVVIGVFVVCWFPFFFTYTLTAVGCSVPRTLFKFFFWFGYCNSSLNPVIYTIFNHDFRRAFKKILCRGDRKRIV

Alpha2B = target: T2, Alpha2B (Homo sapiens, UniProt P18089); assay: PDSP radioligand displacement binding; conditions: average of three independent trials
T2 sequence (P18089 1-450): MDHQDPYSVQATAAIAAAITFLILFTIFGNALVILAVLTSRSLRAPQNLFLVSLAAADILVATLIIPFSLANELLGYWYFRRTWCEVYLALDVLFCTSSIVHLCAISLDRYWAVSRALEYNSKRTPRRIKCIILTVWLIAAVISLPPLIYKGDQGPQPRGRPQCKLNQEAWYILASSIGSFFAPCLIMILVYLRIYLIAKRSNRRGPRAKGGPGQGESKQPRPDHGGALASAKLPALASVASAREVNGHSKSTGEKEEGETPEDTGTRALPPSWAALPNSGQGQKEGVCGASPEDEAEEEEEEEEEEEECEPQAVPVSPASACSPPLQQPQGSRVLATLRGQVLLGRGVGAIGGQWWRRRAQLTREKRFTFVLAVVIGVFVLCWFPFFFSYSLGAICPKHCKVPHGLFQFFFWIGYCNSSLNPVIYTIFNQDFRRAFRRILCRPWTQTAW

μOR [1] = target: T3, μOR (Homo sapiens, UniProt P35372); assay: cell-based; type: cell-based
T3 construct: host or cells: CHO-K1

Alpha1A = target: T4, Alpha1A (Homo sapiens, UniProt P35348); assay: PDSP radioligand displacement binding; conditions: average of three independent trials
T4 sequence (P35348 1-466): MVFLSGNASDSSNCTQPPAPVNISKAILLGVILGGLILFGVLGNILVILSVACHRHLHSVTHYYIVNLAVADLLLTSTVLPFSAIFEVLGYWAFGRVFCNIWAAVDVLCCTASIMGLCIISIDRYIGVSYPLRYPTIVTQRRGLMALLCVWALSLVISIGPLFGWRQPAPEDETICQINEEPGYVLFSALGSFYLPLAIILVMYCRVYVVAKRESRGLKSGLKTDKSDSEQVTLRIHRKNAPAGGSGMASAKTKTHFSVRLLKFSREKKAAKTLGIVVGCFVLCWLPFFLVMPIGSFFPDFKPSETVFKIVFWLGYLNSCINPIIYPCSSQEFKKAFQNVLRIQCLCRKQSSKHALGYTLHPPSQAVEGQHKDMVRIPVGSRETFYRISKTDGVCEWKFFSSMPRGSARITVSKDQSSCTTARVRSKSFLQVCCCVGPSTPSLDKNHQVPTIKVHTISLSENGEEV

Sigma 2 = assay: PDSP radioligand displacement binding; conditions: average of three independent trials
Alpha2C = target: T5, Alpha2C (Homo sapiens, UniProt P18825); assay: PDSP radioligand displacement binding; conditions: average of three independent trials
T5 sequence (P18825 1-462): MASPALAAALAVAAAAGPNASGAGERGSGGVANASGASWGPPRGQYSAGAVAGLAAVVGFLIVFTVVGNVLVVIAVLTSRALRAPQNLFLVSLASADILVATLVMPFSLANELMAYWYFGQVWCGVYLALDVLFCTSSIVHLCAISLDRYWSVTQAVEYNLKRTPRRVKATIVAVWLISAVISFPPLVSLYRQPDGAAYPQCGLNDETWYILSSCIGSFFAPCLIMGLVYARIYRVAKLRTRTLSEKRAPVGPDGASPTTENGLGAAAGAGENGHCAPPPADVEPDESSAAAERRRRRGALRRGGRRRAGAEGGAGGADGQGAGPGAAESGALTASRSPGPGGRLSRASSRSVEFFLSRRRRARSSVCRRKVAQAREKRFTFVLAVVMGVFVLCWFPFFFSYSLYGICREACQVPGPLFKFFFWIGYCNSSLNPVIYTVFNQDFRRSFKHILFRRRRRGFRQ

KOR = KOR (Homo sapiens, UniProt P41145); assay: PDSP radioligand displacement binding; conditions: average of three independent trials
CXCR7 = CXCR7 (Homo sapiens, UniProt P25106); assay: CXCR7 agonism follow-up of the PRESTO-Tango screen; type: cell-based; conditions: weak agonist compared to the CXCR7 agonist VUF11207
κOR [2] = target: T6, κOR (Homo sapiens, UniProt P41145); assay: cell-based; type: cell-based
T6 construct: host or cells: CHO-K1

μOR [3] = target: T3, μOR; assay: Competitive radioligand binding with [3H]DAMGO; conditions: radioligand displacement assay
κOR [4] = target: T6, κOR; assay: Competitive radioligand binding with [3H]U69,593; conditions: radioligand displacement assay

Row | Structure (SMILES) | Ki (Alpha2A) | Ki (Alpha2B) | agonist activity at the μOR (μOR [1]) | Ki (Alpha1A) | Ki (Sigma 2) | Ki (Alpha2C) | Ki (KOR) | Ki (nM) at Alpha2B (Alpha2B) | μOR cAMP inhibition Emax ± SEM (%) (μOR [1]) | μOR cAMP inhibition pEC50 ± SEM (μOR [1]) | EC50 (μOR [1]; read-out: μOR cAMP inhibition EC50) | concentration at which CXCR7 is activated (CXCR7) | κOR cAMP inhibition pEC50 ± SEM (κOR [2]) | EC50 (κOR [2]; read-out: κOR cAMP inhibition EC50) | Ki (μOR [3]) | Ki (κOR [4])
1 | C/C=C1/CN2CC[C@]34C(=C(C(=O)OC)[C@H]1C[C@H]23)Nc1ccc(Br)cc14 [Compound 2, 10-Bromoakuammicine] | > 10000 nM | 1250 nM | only weakly activated the μOR | 1000 nM | 2620 nM | 2910 nM | – | – | – | – | – | – | – | – | – | –
2 | C/C=C1/CN2CC[C@]34C(=C(C(=O)OC)[C@H]1C[C@H]23)Nc1ccc(I)cc14 [Compound 3, 10-Iodoakuammicine] | 732 nM | – | only weakly activated the μOR | 883 nM | 2220 nM | 2860 nM | 1 nM | — (“—” indicates compound produced less than 50% displacement of radioligand in primary binding screen at 10 μM.) | <10% | 4.4 ± 1.9 | 41000 nM | > 3 µM | 8.2 ± 0.1 | 5.7 nM | 3600 nM | 0.087 nM
